Experimental data published in US5688787A, “Substituted β-lactam compounds useful as hypochlesterolemic agents and processes for the preparation thereof” (priority 1996, dated 1997).
Where two headings read alike, the source gives them in different places.

Legend:
ACAT = molecular target: T1, ACAT (Rattus norvegicus, UniProt Q7TQM4); test: ACAT Assay (in vitro); assay type: biochemical; details: for inhibition at 10 µM: Conc. 10 µM
T1 construct: Rat liver microsomes are used as the source of ACAT; from tissue; host or cells: rat liver microsomes
T1 sequence (Q7TQM4 1-524): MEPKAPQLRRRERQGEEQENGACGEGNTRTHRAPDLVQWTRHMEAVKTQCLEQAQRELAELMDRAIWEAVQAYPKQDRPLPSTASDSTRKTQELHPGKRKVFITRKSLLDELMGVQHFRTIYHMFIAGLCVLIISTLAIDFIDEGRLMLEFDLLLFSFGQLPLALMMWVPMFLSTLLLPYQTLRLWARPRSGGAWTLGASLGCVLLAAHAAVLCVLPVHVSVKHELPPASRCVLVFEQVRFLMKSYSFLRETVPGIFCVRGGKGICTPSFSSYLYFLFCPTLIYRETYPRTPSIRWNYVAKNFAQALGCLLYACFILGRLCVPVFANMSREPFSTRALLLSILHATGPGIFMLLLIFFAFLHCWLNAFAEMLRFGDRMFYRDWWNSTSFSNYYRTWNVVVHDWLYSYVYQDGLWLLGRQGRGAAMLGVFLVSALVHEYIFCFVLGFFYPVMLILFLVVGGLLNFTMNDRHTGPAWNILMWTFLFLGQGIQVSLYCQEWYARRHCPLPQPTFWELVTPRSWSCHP

Hyperlipidemic Hamster = test: In Vivo Assay of Hypolipidemic Agents Using the Hyperlipidemic Hamster; details: Mesocricetus auratus, po, 168 h, 7 days, percent change versus control, negative = lowering; for change in vivo at 50 mg/kg: 50 mg/kg once daily oral; for change in vivo at 100 mg/kg: 100 mg/kg once daily oral
In short: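 Test compound in corn oil was given orally once daily for seven days, starting with a 0.5% cholesterol diet, to groups of six hamsters; corn oil alone served as control. Plasma and hepatic lipids were analysed after decapitation. Results are expressed as percent change relative to control.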

[1] = negative = apparent stimulation, read-out: ACAT (in vitro) % Inhib.
[2] = read-out: % Reduction (in vivo) Cholest. Esters
[3] = read-out: % Reduction (in vivo) Serum Cholest.
[4] = rat liver microsomes, read-out: ACAT (in vitro) IC50

Compound	inhibition at 10 µM (ACAT; [1]) [%]	change in vivo at 50 mg/kg (Hyperlipidemic Hamster; [2]) [%]	change in vivo at 50 mg/kg (Hyperlipidemic Hamster; [3]) [%]	also measured
CC[C@]1(c2ccccc2)C(=O)N(c2ccc(OC)cc2)[C@H]1c1ccccc1 (relative stereo) [Example 1AA]	-36	–	–	–
CC[C@H]1C(=O)N(c2ccc(OC)cc2)[C@H]1c1ccccc1 (relative stereo) [Example 1AB]	17	–	–	–
CC[C@H]1C(=O)N(c2ccc(OC)cc2)[C@@H]1c1ccccc1 (relative stereo) [Example 1AD]	-5	–	–	–
CC[C@H]1C(=O)N(c2ccc(OC)cc2)[C@H]1C=Cc1ccccc1 (relative stereo) [Example 1AF]	0	–	–	–
CC[C@@H]1C(=O)N(c2ccc(OC)cc2)[C@H]1C=Cc1ccccc1 (relative stereo) [Example 1AG]	-3	-29	-16	–
COc1ccc(N2C(=O)[C@@H](C)[C@H]2c2ccccc2)cc1 (relative stereo) [Example 1AH]	4	–	–	–
COc1ccc(N2C(=O)[C@@H](C)[C@@H]2c2ccccc2)cc1 (relative stereo) [Example 1AI]	27	–	–	–
CC[C@@H]1C(=O)N(c2ccc(OC)cc2)[C@@H]1c1ccc(OC)cc1 (relative stereo) [Example 1AL]	-43	0	0	–
COc1ccc(N2C(=O)[C@H](CCCc3ccccc3)[C@H]2c2ccncc2)cc1 (relative stereo) [Example 1AR]	-41	-25	-22	–
COc1ccc(N2C(=O)[C@H](CCCc3ccccc3)[C@H]2c2ccc(CO[Si](C)(C)C(C)(C)C)cc2)cc1 (relative stereo) [Example 1AS]	83	-19	0	IC50 (ACAT): 1 µM
COc1ccc(N2C(=O)[C@H](CCCc3ccccc3)[C@@H]2c2ccc(CO[Si](C)(C)C(C)(C)C)cc2)cc1 (relative stereo) [Example 1AT]	70	-28	0	IC50 (ACAT): 5 µM
COc1ccc(N2C(=O)[C@](C(=O)Cc3ccccc3)(c3ccccc3)[C@@H]2c2ccccc2)cc1 (relative stereo) [Example 1A]	–	–	–	change in vivo at 100 mg/kg (Hyperlipidemic Hamster; [2]): -26%; change in vivo at 100 mg/kg (Hyperlipidemic Hamster; [3]): -10%; inhibition at 25 µM (ACAT; Conc. 25 µM, negative = apparent stimulation, read-out: ACAT (in vitro) % Inhib.): 83%
COc1ccc(N2C(=O)[C@H](CCCc3ccccc3)[C@@H]2c2ccc(OC)c(OC)c2)cc1 (relative stereo) [Example 1BB]	-16	0	0	–
COc1ccc(N2C(=O)[C@H](CCCc3ccccc3)[C@@H]2c2ccoc2)cc1 (relative stereo) [Example 1BE]	30	-21	-10	–
COc1ccc(N2C(=O)[C@H](CCCc3ccccc3)[C@H]2c2ccoc2)cc1 (relative stereo) [Example 1BF]	-17	-23	0	–
COc1ccc(N2C(=O)[C@H](CCCc3ccccc3)[C@@H]2c2ccc(C(F)(F)F)cc2)cc1 (relative stereo) [Example 1BH]	50	0	0	–
COc1ccc(N2C(=O)[C@H](CCCc3ccccc3)[C@@H]2c2cccs2)cc1 (relative stereo) [Example 1BI]	59	-45	-17	–
COc1ccc(N2C(=O)[C@H](CCCc3ccccc3)[C@@H]2c2ccsc2)cc1 (relative stereo) [Example 1BJ]	56	0	0	–
COc1ccc(N2C(=O)[C@H](CCCc3ccccc3)[C@@H]2c2cccc(OC(F)(F)F)c2)cc1 (relative stereo) [Example 1BK]	55	0	0	–
COc1ccc(N2C(=O)[C@H](CCCc3ccccc3)[C@@H]2c2ccc(C)cc2)cc1 (relative stereo) [Example 1BM]	38	-21	0	–
COc1ccc(N2C(=O)[C@H](CCCc3ccccc3)[C@@H]2c2ccc(OCc3ccccc3)cc2)cc1 (relative stereo) [Example 1BN]	–	0	-16	IC50 (ACAT; [4]): 7 µM
COc1ccc(N2C(=O)[C@@H](CCCc3ccccc3)[C@@H]2c2cccs2)cc1 (relative stereo) [Example 1BQ]	35	-17	0	–
COc1ccc(N2C(=O)[C@@H](CCc3ccccc3)[C@@H]2c2ccccc2)cc1 (relative stereo) [Example 1E]	3	–	–	–
CC[C@]1(CCCc2ccccc2)C(=O)N(c2c(OC)cc(OC)cc2OC)[C@H]1C=Cc1ccccc1 (relative stereo) [Example 1J]	86	–	–	IC50 (ACAT; [4]): 3 µM
COc1ccc(N2C(=O)[C@H](c3ccccc3)[C@H]2c2ccccc2)cc1 (relative stereo) [Example 1V]	64	–	–	–
COc1ccc(N2C(=O)[C@H](C(C)C)[C@@H]2c2ccccc2)cc1 (relative stereo) [Example 1W]	9	–	–	–
COc1ccc(N2C(=O)[C@](Cc3ccccc3)(c3ccccc3)[C@@H]2c2ccccc2)cc1 (relative stereo) [Example 1Y]	50	–	–	–
COc1ccc(N2C(=O)[C@@H](C(C)C)[C@@H]2c2ccccc2)cc1 (relative stereo) [Example 5A]	-70	–	–	–
CC[C@@H]1C(=O)N(c2ccc(OC)cc2)[C@@H]1c1ccc(N)cc1 (relative stereo) [Example 8]	-12	–	–	–

Further lines, with some results ahead:

inhibition at 10 µM (ACAT; [1]) [%]	Compound	change in vivo at 50 mg/kg (Hyperlipidemic Hamster; [2]) [%]	change in vivo at 50 mg/kg (Hyperlipidemic Hamster; [3]) [%]	also measured
-7	CC[C@H]1C(=O)N(c2c(OC)cc(OC)cc2OC)[C@H]1c1ccccc1 (relative stereo) [Example 1AE]	–	–	–
-17	CC[C@@H]1C(=O)N(c2ccc(OC)cc2)[C@H]1c1ccc([N+](=O)[O-])cc1 (relative stereo) [Example 1AJ]	0	0	–
-33	CC[C@H]1C(=O)N(c2ccc(OC)cc2)[C@H]1c1ccc([N+](=O)[O-])cc1 (relative stereo) [Example 1AK]	–	–	–
44	COc1ccc(N2C(=O)[C@H](CCCc3ccccc3)[C@@H]2c2ccc(SC)cc2)cc1 (relative stereo) [Example 1AU]	-21	0	–
-2	COc1ccc(N2C(=O)[C@H](CCCc3ccccc3)[C@@H]2c2ccco2)cc1 (relative stereo) [Example 1BC]	0	0	–
17	COc1ccc(N2C(=O)[C@H](CCCc3ccccc3)[C@H]2c2ccco2)cc1 (relative stereo) [Example 1BD]	-25	0	–
3	COc1ccc(N2C(=O)[C@H](CCCc3ccccc3)[C@H]2c2ccc(C(F)(F)F)cc2)cc1 (relative stereo) [Example 1BG]	0	12	–
42	COc1ccc(N2C(=O)[C@@H](CCCc3ccccc3)[C@@H]2c2cccc(OC(F)(F)F)c2)cc1 (relative stereo) [Example 1BL]	0	-10	–
79	CCOc1ccc([C@H]2[C@@H](CCCc3ccccc3)C(=O)N2c2ccc(OC)cc2)cc1 (relative stereo) [Example 1BO]	-93	-48	IC50 (ACAT; [4]): 5.4 µM
58	COc1ccc(N2C(=O)[C@@H](CCCc3ccccc3)[C@@H]2c2ccsc2)cc1 (relative stereo) [Example 1BP]	0	-9	–
81	CC[C@@]1(CCCc2ccccc2)C(=O)N(c2c(OC)cc(OC)cc2OC)[C@H]1C=Cc1ccccc1 (relative stereo) [Example 1I]	–	–	IC50 (ACAT; [4]): 4.5 µM
-18	CCCCCCCCCC[C@@]1(CCCc2ccccc2)C(=O)N(c2ccc(OC)cc2)[C@@H]1c1ccccc1 (relative stereo) [Example 3C]	–	–	–
16	COc1ccc(N2C(=O)[C@H](c3ccccc3)[C@@H]2c2ccccc2)cc1 (relative stereo) [Example 4]	–	–	–
-9	CCCCCCCCCC[C@@]1(CC)C(=O)N(c2ccc(OC)cc2)[C@@H]1c1ccccc1 (stereo in doubt) [Example 3T]	–	–	–
